Results as given in patent US9204640B2, “2-acyloxy-pyrrolin-4-ones” (BAYER INTELLECTUAL PROPERTY GMBH, priority 2011, dated 2015).

Assays:
Type in all cases: in vivo
[1] = test system: Phaedon cochleariae; assay: Phaedon test (PHAECO spray treatment); conditions: application rate 500 g/ha, after 7 days, Chinese cabbage leaf discs
Procedure, shortened: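 Chinese cabbage (Brassica pekinensis) leaf discs sprayed with compound diluted in emulsifier-containing water to the desired concentration, then infested with mustard beetle larvae once dry. Mortality in % scored after 7 days or after the desired period (100% = all larvae dead, 0% = none dead).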

[2] = test system: Myzus persicae; assay: Myzus persicae test; hydroponic treatment (MYZUPE Sys); conditions: 20 ppm, 6dat
Description: Myzus Persicae Test; Hydroponic Treatment (MYZUPE Sys)
To produce a suitable preparation of active compound, 1 part by weight of active compound is mixed with the stated amounts of solvent and emulsifier, and the concentrate is diluted with water to the desired concentration.
The active compound preparation is mixed with water. The stated concentration refers to the amount of active compound per volume unit of water (mg/l=ppm). The treated water is filled into vessels containing a pea plant (Pisum sativum), and the plant is the infested with the green peach aphid (Myzus persicae).
After the desired period of time, the kill in % is determined 100% means that all of the aphids have been killed; 0% means that none of the aphids have been killed.

[3] = test system: Setaria viridis; assay: Herbicidal pre-emergence action, SETVI; conditions: 20 g/ha
Description: 1. Herbicidal Pre-Emergence Action
• Seeds of monocotyledonous and dicotyledonous weed plants and crop plants are placed in wood-fiber pots in sandy loam and covered with soil. The test compounds, formulated in the form of wettable powders (WP), are then, as an aqueous suspension with a water application rate of 600 l/ha (converted), with 0.2% of wetting agent added, applied at various dosages to the surface of the covering soil. • After the treatment, the pots are placed in a greenhouse and kept under good growth conditions for the test plants. The visual assessment of the damage to the test plants is carried out after a trial period of about 3 weeks by comparison with untreated controls (herbicidal activity in percent: 100% activity=the plants have died, 0% activity=like control plants). • In addition to the compounds mentioned above, the following compounds show an activity of 90-100% against Alopecurus myosuroides, Digitaria sanguinalis, Echinocloa crus-galli, Lolium multiflorum, Setaria viridis and Sorghum halapense when applied by the pre-emergence method at 320 g/ha of a.i.: I-a-2, I-a-10, I-a-11, I-a-12.
1. Herbicidal Pre-Emergence Action (Pre)
• Seeds of monocotyledonous and dicotyledonous weed plants and crop plants are placed in wood-fiber pots in sandy loam and covered with soil. The test compounds, formulated in the form of wettable powders (WP) or emulsion concentrates (EC), are then, as an aqueous suspension with a water application rate of 600-800 l/ha (converted), with 0.1-0.2% of wetting agent added, applied at various dosages to the surface of the covering soil. • After the treatment, the pots are placed in a greenhouse and kept under good growth conditions for the test plants. […] Herbicidal Post-Emergence Action (Post) • Seeds of monocotyledonous and dicotyledonous weed and crop plants are placed in sandy loam in wood-fiber pots, covered with soil and cultivated in a greenhouse under good growth conditions. 2-3 weeks (stages 10-13 according to the BBCH scale) after sowing, the test plants are treated at a height of 5-10 cm. The test compounds, formulated as wettable powders (WP) or emulsion concentrates (EC), are then, with a water application rate of 600-800 l/ha (converted), with 0.1-0.2% of wetting agent added, sprayed at various dosages onto the green parts of the plants.
AVEFA: Avena fatua LOLMU: Lolium multiflorum SETVI: Setaria viridis CHEAL: Chenopodium album VIOTR: Viola tricolor VERPE: Veronica persica ORYSA: Oryza sativa TRZAS: Triticum aestivum ZEAMX: Zea mays ALOMY: Alopecurus myosuroides DIGSA: Digitaria sanguinalis ECHCG: Echinocloa crus-galli SORHA: Sorghum halepense AVESA: Avena sativa AMARE: Amaranthus retroflexus SINAL: Sinapis alba STEME: Stellaria media

CCOC(=O)OC1=C(c2c(C)cc(I)cc2CC)C(=O)C2(CCC(OC)CC2)N1 (mixture of isomers) [I-b-2] was tested, and the “effect in % (beetle larvae killed)” value [1] was 83%, the “% Activity MYZUPE sys” value [2] was 99% and the “% Activity SETVI” value [3] was 70%.
